From patent US9556165B2 (priority 2012, dated 2017)
≈ marks a conversion by molar mass, not a printed value.

What was measured:
Test in all cases: MIC determination, broth microdilution (CLSI)
Format in all cases: cell-based
[1] = tested on: P. aeruginosa 2297 (AmpC wt); settings: Pseudomonas aeruginosa, strain 7
H. influenzae ATCC 49247 = settings: Haemophilus influenzae, ATCC49247, strain 13; read-out: strain 13 MIC
C. freundii K21/3034 = settings: Citrobacter freundii, K21/3034, strain 4
E. coli J62 = settings: Escherichia coli, J62, strain 17; read-out: strain 17 MIC
E. coli ATCC25922 = settings: Escherichia coli, ATCC25922, strain 1
strain 21 = tested on: strain 21
K. pneumoniae 60 = settings: Klebsiella pneumoniae, 60, strain 2
[2] = tested on: P. aeruginosa 2297-con (AmpC derepressed); settings: Pseudomonas aeruginosa, read-out: strain 8 MIC, strain 8
P. aeruginosa PAO1 = settings: Pseudomonas aeruginosa, PAO1, strain 6
E. cloacae 34654 = settings: Enterobacter cloacae, 34654, strain 3
S. pneumoniae 113 = settings: Streptococcus pneumoniae, 113, strain 14; read-out: strain 14 MIC
strain 19 = tested on: strain 19
E. coli J62-TEM-3 = settings: Escherichia coli, J62TEM3, read-out: strain 18 MIC, strain 18
M. catarrhalis ICB489 = settings: Moraxella catarrhalis, ICB489, strain 12
M. morganii 126/3048 = settings: Morganella morganii, 126/3048, strain 5
B. fragilis 6688 = settings: Bacteroides fragilis, 6688, strain 15; read-out: strain 15 MIC
A. baumannii ATCC15308 = settings: Acinetobacter baumannii, ATCC15308, strain 9
strain 20 = tested on: strain 20
S. aureus 133 = settings: Staphylococcus aureus, 133, strain 11; read-out: strain 11 MIC

Row | Structure (SMILES) | MIC [1] | MIC (H. influenzae ATCC 49247) | MIC (C. freundii K21/3034) | MIC (E. coli J62) | MIC (E. coli ATCC25922) | MIC (strain 21) | MIC (K. pneumoniae 60) | MIC [2] | MIC (P. aeruginosa PAO1) | MIC (E. cloacae 34654) | MIC (S. pneumoniae 113) | MIC (strain 19) | MIC (E. coli J62-TEM-3) | MIC (M. catarrhalis ICB489) | MIC (M. morganii 126/3048) | MIC (B. fragilis 6688) | MIC (A. baumannii ATCC15308) | MIC (strain 20) | MIC (S. aureus 133)
1 | C[C@H]1[C@H](NC(=O)/C(=N\OCCOc2ccc(C(=N)N)cc2Cl)c2csc(N)n2)C(=O)N1S(=O)(=O)O [Example 20, (2S,3S)-3-{[(2Z)-2-(2-Amino-1,3-thiazol-4-yl)-2-{[2-(4-carbamimidoyl-2-chlorophenoxy)ethoxy]imino}acetyl]amino}-2-methyl-4-oxoazetidine-1-sulfonic acid] | 8 µg/mL (≈ 14.7 µM) | 0.5 µg/mL (≈ 0.916 µM) | 1 µg/mL (≈ 1.83 µM) | 2 µg/mL (≈ 3.66 µM) | 2 µg/mL (≈ 3.66 µM) | 1 µg/mL (≈ 1.83 µM) | 2 µg/mL (≈ 3.66 µM) | 32 µg/mL (≈ 58.6 µM) | 8 µg/mL (≈ 14.7 µM) | 2 µg/mL (≈ 3.66 µM) | 16 µg/mL (≈ 29.3 µM) | 2 µg/mL (≈ 3.66 µM) | 32 µg/mL (≈ 58.6 µM) | 0.5 µg/mL (≈ 0.916 µM) | 2 µg/mL (≈ 3.66 µM) | 16 µg/mL (≈ 29.3 µM) | 2 µg/mL (≈ 3.66 µM) | 2 µg/mL (≈ 3.66 µM) | 0.125 µg/mL (≈ 0.229 µM)
2 | C[C@H]1[C@H](NC(=O)/C(=N\OCCOc2ccc(C(=N)N)nn2)c2csc(N)n2)C(=O)N1S(=O)(=O)O [Example 28, (2S,3S)-3-{[(2Z)-2-(2-Amino-1,3-thiazol-4-yl)-2-({2-[(6-carbamimidoylpyridazin-3-yl)oxy]ethoxy}imino)acetyl]amino}-2-methyl-4-oxoazetidine-1-sulfonic acid] | 8 µg/mL (≈ 15.6 µM) | 0.5 µg/mL (≈ 0.974 µM) | 0.125 µg/mL (≈ 0.243 µM) | 0.25 µg/mL (≈ 0.487 µM) | 0.125 µg/mL (≈ 0.243 µM) | 0.25 µg/mL (≈ 0.487 µM) | 0.125 µg/mL (≈ 0.243 µM) | 32 µg/mL (≈ 62.3 µM) | 4 µg/mL (≈ 7.79 µM) | 0.125 µg/mL (≈ 0.243 µM) | 2 µg/mL (≈ 3.89 µM) | 0.25 µg/mL (≈ 0.487 µM) | 32 µg/mL (≈ 62.3 µM) | 0.25 µg/mL (≈ 0.487 µM) | 0.125 µg/mL (≈ 0.243 µM) | 8 µg/mL (≈ 15.6 µM) | 0.5 µg/mL (≈ 0.974 µM) | 0.25 µg/mL (≈ 0.487 µM) | 0.125 µg/mL (≈ 0.243 µM)
3 | C[C@H]1[C@H](NC(=O)/C(=N\OCCOc2cnc(C(=N)N)cn2)c2csc(N)n2)C(=O)N1S(=O)(=O)O [Example 30, (2S,3S)-3-{[(2Z)-2-(2-Amino-1,3-thiazol-4-yl)-2-({2-[(5-carbamimidoylpyrazin-2-yl)oxy]-ethoxy}imino)acetyl]amino}-2-methyl-4-oxoazetidine-1-sulfonic acid] | 4 µg/mL (≈ 7.79 µM) | 0.5 µg/mL (≈ 0.974 µM) | ≤ 0.063 µg/mL | 0.25 µg/mL (≈ 0.487 µM) | 0.125 µg/mL (≈ 0.243 µM) | 0.25 µg/mL (≈ 0.487 µM) | ≤ 0.063 µg/mL | 32 µg/mL (≈ 62.3 µM) | 4 µg/mL (≈ 7.79 µM) | 0.25 µg/mL (≈ 0.487 µM) | 4 µg/mL (≈ 7.79 µM) | 0.25 µg/mL (≈ 0.487 µM) | 16 µg/mL (≈ 31.2 µM) | 0.25 µg/mL (≈ 0.487 µM) | ≤ 0.063 µg/mL | 8 µg/mL (≈ 15.6 µM) | 1 µg/mL (≈ 1.95 µM) | 0.25 µg/mL (≈ 0.487 µM) | 0.125 µg/mL (≈ 0.243 µM)
4 | C[C@H]1[C@H](NC(=O)/C(=N\OCCOc2nc(C(=N)N)cs2)c2csc(N)n2)C(=O)N1S(=O)(=O)O [Example 31, (2S,3S)-3-{[(2Z)-2-(2-Amino-1,3-thiazol-4-yl)-2-({2-[(4-carbamimidoyl-1,3-thiazol-2-yl)oxy]ethoxy}imino)acetyl]amino}-2-methyl-4-oxoazetidine-1-sulfonic acid] | 8 µg/mL (≈ 15.4 µM) | 0.25 µg/mL (≈ 0.482 µM) | ≤ 0.063 µg/mL | 0.25 µg/mL (≈ 0.482 µM) | 0.125 µg/mL (≈ 0.241 µM) | 0.25 µg/mL (≈ 0.482 µM) | ≤ 0.063 µg/mL | 32 µg/mL (≈ 61.7 µM) | 8 µg/mL (≈ 15.4 µM) | 0.25 µg/mL (≈ 0.482 µM) | 8 µg/mL (≈ 15.4 µM) | 0.125 µg/mL (≈ 0.241 µM) | 32 µg/mL (≈ 61.7 µM) | 0.25 µg/mL (≈ 0.482 µM) | 0.25 µg/mL (≈ 0.482 µM) | 4 µg/mL (≈ 7.71 µM) | 1 µg/mL (≈ 1.93 µM) | 0.25 µg/mL (≈ 0.482 µM) | ≤ 0.063 µg/mL
5 | C[C@H]1[C@H](NC(=O)/C(=N\OCCOc2ccc(C(=N)N)cc2N)c2csc(N)n2)C(=O)N1S(=O)(=O)O [Example 35, (2S,3S)-3-{[(2Z)-2-{[2-(2-Amino-4-carbamimidoylphenoxy)ethoxy]imino}-2-(2-amino-1,3-thiazol-4-yl)acetyl]amino}-2-methyl-4-oxoazetidine-1-sulfonic acid] | 16 µg/mL (≈ 30.4 µM) | 1 µg/mL (≈ 1.9 µM) | 2 µg/mL (≈ 3.8 µM) | 4 µg/mL (≈ 7.6 µM) | 2 µg/mL (≈ 3.8 µM) | 4 µg/mL (≈ 7.6 µM) | 2 µg/mL (≈ 3.8 µM) | 32 µg/mL (≈ 60.8 µM) | 16 µg/mL (≈ 30.4 µM) | 4 µg/mL (≈ 7.6 µM) | 32 µg/mL (≈ 60.8 µM) | 2 µg/mL (≈ 3.8 µM) | 32 µg/mL (≈ 60.8 µM) | 1 µg/mL (≈ 1.9 µM) | 1 µg/mL (≈ 1.9 µM) | 16 µg/mL (≈ 30.4 µM) | 2 µg/mL (≈ 3.8 µM) | 8 µg/mL (≈ 15.2 µM) | 0.25 µg/mL (≈ 0.475 µM)
